Results from patent publication US20100323968A1, “Process of inhibiting cell death in injured cartilage” (The Scripps Research Institute, priority 2001, published 2010).
“Also recorded” adds a separate entry of the source. Where a SMILES comes first, the peptide text is derived from it. The star is where a group is joined. Cbz = O=C(OCc1ccccc1)*; CH2F = FC*

How the values were obtained:
[1] = tested on: bovine cartilage explants; assay: Apoptosis (TUNEL) in mechanically injured bovine cartilage explants; type: cell-based; details: for Mean (±SD) apoptosis rates, Loaded + Agent: bovine femoral condyle cartilage, loaded at 23 MPa, in vitro, n = 8 to 10
Excerpt: Cartilage explants. Macroscopically normal weight bearing portions of freshly slaughtered skeletally mature bovine femoral condyles were selected from animals between 2 and 6 years of age (Animal Technologies, Austin, Tex.). Only joints without visible signs of degeneration or aging were selected. Using sterile techniques, full thickness cartilage was separated from underlying subchondral bone with a scalpel and 5 mm diameter cylindrical explants, ranging from 1 to 1.8 mm in height, cored out using a dermal punch (Acuderm, Inc., Ft. Lauderdale, Fla.). Explants taken from adjacent sites were used as matched controls for each group in each experiment to minimize variation in cartilage response due to differences in thickness and location within the joint. Each explant was weighed and allowed to stabilize at 37° C. and 5% CO2 for 48 hours in 1 ml of Dulbecco's modified Eagle's medium (DMEM) supplemented with 10% fetal bovine serum (FBS), L-glutamine, antibiotics and 50 μg/ml ascorbic acid.
Full thickness bovine cartilage explants, 5 mm in diameter, were subjected to a single static mechanical load of 7, 14 or 23 MPa for 500 msec. This model simulates traumatic cartilage injury and the loads were similar in magnitude to those generated during traumatic joint injury. Glycosaminoglycan (GAG) release and percent apoptotic cells were measured. The effect of a pan-caspase inhibitor, z-VAD.fmk [benzyloxycarbonyl-Val-Ala-Asp (OMe) fluoromethylketone] in preventing chondrocyte apoptosis was determined. z-VAD.fmk is a fluoromethylketone irreversible inhibitor of a broad spectrum of caspases. […] The percentage of apoptotic chondrocytes was related to load intensity and correlated with the level of GAG release from cartilage. […] This identifies a new approach to limit traumatic cartilage injury and the subsequent development of secondary osteoarthritis.
Loading apparatus and procedure. A model to simulate acute joint injury was used in this study based on injury models reported by Repo and Finlay, and Jeffrey et al. (Repo, et al. (1977) J. Bone Joint Surg. Am. 59A, 1068-1076, Jeffrey, et al. (1995) Arch. Biochem. Biophys. 322, 87-96). Although these reported models impacted cartilage using drop towers, a more controlled method was chosen for applying and maintaining stress or strain as follows. An Instron 8511 servohydraulic testing machine (Instron Corporation, Boston, Mass.) was used to mechanically load the cartilage explants. Explants were transported from the incubator to the Instron machine in sealed cell culture dishes. The explant was centralized on a stainless steel loading platform and a radially unconfined compressive load was applied through an impermeable stainless steel platen. A small preload (0.1 MPa) was applied for 2 minutes, followed by a single 500 msec trapezoidal loading waveform at the selected stress. The stress rose from 0.1 MPa to the chosen stress level in 100 msec and was maintained for 500 msec. Three stress levels were chosen to represent acute joint injury. 7 MPa has been reported to be the upper limit of physiologic stress developed during activities of daily living (von Eisenhart, et al. (1999) J. Orthop. Res. 17, 532-539). 23 MPa is the stress above which the underlying bone has been reported to fracture (Haut (1989) J. Orthop. Res. 7, 272-280). Control explants were placed in the loading apparatus but not loaded. […] Stress and strain data were recorded during the test. […]

human cartilage explants = assay: Apoptosis (TUNEL) in mechanically injured human cartilage explants; type: cell-based; details: for Mean (±SD) apoptosis rates, Loaded + Agent: human cartilage (femoral condyles and tibial plateaus), in vitro, n = 8 to 10
Excerpt: Cartilage explants. Macroscopically normal tibial and femoral articular surfaces were selected from human cadaver donors between 18 and 45 years of age. Using sterile techniques, full thickness cartilage was separated from underlying subchondral bone with a scalpel. 5 mm diameter cylindrical explants, ranging from 2 to 2.8 mm in thickness, cored out using a dermal punch (Acuderm, Inc., Ft. Lauderdale, Fla.). Explants taken from adjacent sites were used as matched controls for each group in each experiment to minimize variation in cartilage response due to differences in thickness and location within the joint. Each explant was weighed and allowed to stabilize at 37° C. and 5% CO2 for 48 hours in Dulbecco's modified Eagle's medium (DMEM) supplemented with 5% fetal bovine serum (FBS), L-glutamine, antibiotics and […] ascorbic acid.
Loading apparatus and procedure. An Instron 8511 servohydraulic testing machine (Instron Corporation, Boston, Mass.) was used to mechanically load the cartilage explants. Explants were transported from the incubator to the Instron machine in sealed cell culture dishes. The total time duration of loading for a single experiment varied from approximately 1 to 2 hours depending on the number of samples. During this time, explants were maintained at 37° C. The explant was centralized on a stainless steel loading platform and a radially unconfined compressive load was applied through an impermeable stainless steel platen. […] Stress and strain data were recorded during the test.
Caspase inhibition. […] Percentage apoptosis was measured at 96 hours post-injury in three groups (control, loaded, and loaded with z-VAD.fmk) with ten explants each in two separate experiments.
Apoptosis detection. […] This was detected by immunohistochemical staining with M30 (Cytodeath, Boehringer Mannheim, Eugene, Oreg.), a monoclonal antibody that recognizes the neo-epitope exposed in early apoptosis.
Chondrocyte apoptosis after mechanical injury to human cartilage. […] GAG release and percentage of cells undergoing apoptosis were measured at 96 hours after injury. […]

[2] = tested on: bovine cartilage explants; assay: Glycosaminoglycan release assay (DMMB) in injured bovine cartilage explants; type: cell-based; details: bovine explants after mechanical injury, z-VAD.fmk 100 μM, 48 hours
Method: Glycosaminoglycan release assay. To estimate GAG depletion and release, the concentration of sulfated glycosaminoglycans was measured using […] (DMMB) as a monitor of spectrophotometric changes which occur during the formation of the sulfated GAG dye complex (Farndale, et al. (1986) Biochim. Biophys. Acts. 883, 173-177, Goldberg, et al. (1993) Agents Actions 39 Spec No, C163-C165). For GAG content measurement, samples were digested in papain and collagenase and the concentration of sulfated GAG measured using DMMB. To generate a standard curve, chondroitin-6-sulfate (Sigma, St. Louis, Mo.) was used at concentrations between 1 and 200 μg/ml. GAG released in media was normalized to the pooled mean GAG content of Control (uninjured) cartilage explants and expressed as a percentage of total GAG content.
Inhibition of apoptosis. To determine whether apoptosis could be prevented by caspase inhibition, 12 explants were loaded at 23 MPa (High Load) and cultured for 48 hours. […] Percent apoptosis and GAG release in media was measured as described above.
Release of sulfated glycosaminoglycans (GAG) was analyzed as a measure of the extent of damage sustained by the explant. […] GAG depletion was assessed by dimethylene blue binding assays of the culture supernatants and this correlated with the reduced of safranin O staining of the cartilage sections.

[3] = tested on: femoral and tibial articular cartilage; assay: Intraarticular injection of caspase inhibitor in rabbits with anterior cruciate ligament transection (ACLT); type: in vivo, New Zealand White rabbits; details: rabbit bilateral ACLT, 25 μg intra-articular three times per week for six weeks
Method: Intraarticular injection of caspase inhibitor in rabbits with ligament transection. A pilot study was performed to assess feasibility and efficacy of caspase inhibition in vivo. Eight New Zealand White rabbits were divided into anterior cruciate ligament transection (ACLT) and ACLT+ caspase inhibitor (CI) groups. Both groups underwent bilateral ACLT. The ACLT+CI group was treated with intra-articular injections of 25 μg of z-VAD.fmk three times per week for six weeks while the control group received saline injections. Rabbits were euthanised at six weeks and femoral and tibial articular cartilage evaluated by India ink staining and histologic Mankin grading after Safranin-O stain.
Histologically, more knees from the ACLT group had higher Mankin scores. 87% (⅞) ACLT knees had grades 5 or higher, while 50% ( 4/8) ACLT+CI knees were graded 5 or higher. The India ink stained femoral condyles were photographed and digital images were used to quantify the surface areas of the lesions.

| Molecule | Mean (±SD) apoptosis rates, Loaded + Agent [1] | Mean (±SD) apoptosis rates, Loaded + Agent (human cartilage explants; loaded at 30% strain) | Mean (±SD) apoptosis rates, Loaded + Agent (human cartilage explants; loaded at 23 MPa) | mean reduction in apoptotic rates (human cartilage explants; human explants cultured in z-VAD.fmk immediately after injury, 30% strain, 96 hours post-injury) | GAG release / GAG depletion [2] | GAG release / GAG depletion ([2]; listed as pan-caspase inhibitor) | reduction of the size of the cartilage lesions (surface area, India ink stained femoral condyles) [3] | knees with histologic Mankin grades 5 or higher ([3]; 4/8 knees, ACLT saline group 87%) | cartilage lesions under India ink examination (area, grade) ([3]; ACLT group grade III to IVa, listed as caspase inhibitor) | chondrocyte apoptosis after mechanical injury (result in words) ([1]; bovine explants, z-VAD.fmk 100 μM, 23 MPa, 48 hours) | reduction in the apoptosis rate ([1]; high and intermediate load groups, bovine explants) |
| --- | --- | --- | --- | --- | --- | --- | --- | --- | --- | --- | --- |
| C[C@@H]1C[C@H]2[C@@H]3CCC4=CC(=O)C=C[C@]4(C)[C@@]3(F)[C@@H](O)C[C@]2(C)[C@@]1(O)C(=O)CO [Dexameth.] | 47 (±11.2) % | – | – | – | – | – | – | – | – | – | – |
| IGF-1: agent IGF-1 tested for pharmacologic modulation of apoptosis after cartilage injury in vitro | 42 (±10.9) % | 10 (±6.2) % | – | – | – | – | – | – | – | – | – |
| COC(=O)CC(NC(=O)C(C)NC(=O)C(NC(=O)OCc1ccccc1)C(C)C)C(=O)CF (stereo not drawn) [z-VAD.fmk, benzyloxycarbonyl-Val-Ala-Asp (OMe) fluoromethylketone] (Cbz-Val-Ala-Asp(OMe)-CH2F; configuration not given here) | 31 (±13.9) % | – | 34 (±10.2) % | 50% | normalization of the GAG depletion | reduction in GAG release | ~80% | 50% | lesions that were smaller in area; also recorded: ranged from II (minimum fibrillation) | reduced chondrocyte apoptosis | > 50% |
